The text below walks through data of patent US8552002B2 (Novartis AG, priority 2004, dated 2013).

Format in all cases: biochemical
One experiment deals with T1, FGFR3 (K650E) (Homo sapiens, UniProt P22607, K650E).
T1 construct: amino acids 411-806 of the cytoplasmic domain of human FGFR-3, N-terminally fused to GST; made in house; host or cells: Sf9 insect cells (baculovirus)
The experiment in a line: Recombinant GST-FGFR-3-K650E tyrosine kinase assay (33P into poly(Glu,Tyr)). Particulars: 10 μM; Examples 1 to 169; read-out: FGFR3 (K650E) inhibition at 10 μM.

Another experiment concerns the target T2, Tek (Homo sapiens, UniProt Q02763).
T2 construct: amino acids 773-1124 of the cytoplasmic kinase domain of human Tek, N-terminally fused to GST; made in house; host or cells: Sf9 insect cells (baculovirus)
Kind of experiment: Recombinant GST-Tek (Tie-2) tyrosine kinase assay (33P into poly(Glu,Tyr)). Particulars: Examples 1 to 169. An excerpt:
(Tie-2/Tek): The baculovirus donor vector pFbacG01 was used to generate a recombinant baculovirus that expressed the amino acid region amino acids 773-1124 of the cytoplasmic kinase domain of human Tek, N-terminally fused to GST (Provided by Dr. Marmé, Institute of Molecular Medicine, Freiburg, Germany based on a Research Collaboration). Tek was recloned into the pFbacG01 transfer vector by EcoRI excision and ligation into EcoRI digested pFbacG01 (FBG-Tie2/Tek).
Production of virus: Transfer vectors containing the kinase domains were transfected into the DH10Bac cell line (GIBCO) and plated on selective agar plates. Colonies without insertion of the fusion sequence into the viral genome (carried by the bacteria) are blue. Single white colonies were picked and viral DNA (bacmid) isolated from the bacteria by standard plasmid purification procedures. Sf9 cells or Sf21 cells were then transfected in 25 cm^2 flasks with the viral DNA using Cellfectin reagent.
Determination of small scale protein expression in Sf9 cells: Virus containing media was collected from the transfected cell culture and used for infection to increase its titer. Virus containing media obtained after two rounds of infection was used for large-scale protein expression. For large-scale protein expression 100 cm^2 round tissue culture plates were seeded with 5×10^7 cells/plate and infected with 1 mL of virus-containing media (approx. 5 MOIs). After 3 days the cells were scraped off the plate and centrifuged at 500 rpm for 5 min. Cell pellets from 10-20, 100 cm^2 plates, were resuspended in 50 mL of ice-cold lysis buffer (25 mMTris-HCl, pH7.5, 2 mMEDTA, 1% NP-40, 1 mM DTT, 1 mMP MSF). The cells were stirred on ice for 15 min and then centrifuged at 5000 rpms for 20 min.
Purification of GST-tagged proteins: The centrifuged cell lysate was loaded onto a 2 mL glutathione-sepharose column and washed three times with 10 mL of 25 mM Tris-HCl, pH 7.5, 2 mM EDTA, 1 mM DTT, 200 mM NaCl. The GST-tagged proteins were then eluted by 10 applications (1 mL each) of 25 mM Tris-HCl, pH 7.5, 10 mM reduced-glutathione, 100 mM NaCl, 1 mM DTT, 10% Glycerol and stored at −70° C.
Measure of enzyme activity: Tyrosine protein kinase assays with either purified GST-Ret, GST-Tek or GST-FGFR-3-K650E were carried out in a final volume of 30 μL with final concentrations of the following components: Ret included 15 ng of GST-Ret, 20 mM Tris-HCl, pH 7.5, 1 mM MnCl2, 10 mM MgCl2, 1 mM DTT, 3 μg/mL poly(Glu,Tyr) 4:1, 1% DMSO and 2.0 μM ATP (γ-[^33P]-ATP 0.1 μCi). Tek included 150 ng of GST-Tek, 20 mM Tris-HCl, pH 7.5, 3 mM MnCl2, 3 mM MgCl2, 1 mM DTT, 0.01 mM Na3VO4, 250 μg/mL PEG 20'000, 10 μg/mL poly(Glu,Tyr) 4:1, 1% DMSO and 4.0 μM ATP (γ-[^33P]-ATP 0.1 μCi). FGFR-3-K650E included 10 ng of GST-FGFR-3-K650E, 20 mM Tris-HCl, pH 7.5, 3 mM MnCl2, 3 mM MgCl2, 1 mM DTT, […], 10 μg/mL poly(Glu,Tyr) 4:1, 1% DMSO and 4.0 μM ATP (γ-[^33P]-ATP 0.1 μCi).The activity was assayed in the presence or absence of inhibitors, by measuring the incorporation of ^33P from [γ^33P] ATP into poly(Glu,Tyr) 4:1. The assay was carried out in 96-well plates at ambient temperature for 30 min under conditions described below and terminated by the addition of 50 μL of 125 mM EDTA. Subsequently, 60 μL of the reaction mixture were transferred onto Immobilon-PVDF membrane (Millipore) previously soaked for 5 min with methanol, rinsed with water, then soaked for 5 min with 0.5% H3PO4 and mounted on vacuum manifold with disconnected vacuum source. After spotting all samples, vacuum was connected and each well rinsed with 200 μL 0.5% H3PO4. Membranes were removed and washed 4× on a shaker with 1.0% H3PO4, once with ethanol. Membranes were counted after drying at ambient temperature, mounting in Packard TopCount 96-well frame, and addition of 10 μL/well of Microscint™ (Packard). […]

For another experiment, the target named is T3, KDR (Homo sapiens, UniProt P35968).
T3 construct: expressed in transfected cells; host or cells: CHO cells
T3 sequence (P35968 20-1356): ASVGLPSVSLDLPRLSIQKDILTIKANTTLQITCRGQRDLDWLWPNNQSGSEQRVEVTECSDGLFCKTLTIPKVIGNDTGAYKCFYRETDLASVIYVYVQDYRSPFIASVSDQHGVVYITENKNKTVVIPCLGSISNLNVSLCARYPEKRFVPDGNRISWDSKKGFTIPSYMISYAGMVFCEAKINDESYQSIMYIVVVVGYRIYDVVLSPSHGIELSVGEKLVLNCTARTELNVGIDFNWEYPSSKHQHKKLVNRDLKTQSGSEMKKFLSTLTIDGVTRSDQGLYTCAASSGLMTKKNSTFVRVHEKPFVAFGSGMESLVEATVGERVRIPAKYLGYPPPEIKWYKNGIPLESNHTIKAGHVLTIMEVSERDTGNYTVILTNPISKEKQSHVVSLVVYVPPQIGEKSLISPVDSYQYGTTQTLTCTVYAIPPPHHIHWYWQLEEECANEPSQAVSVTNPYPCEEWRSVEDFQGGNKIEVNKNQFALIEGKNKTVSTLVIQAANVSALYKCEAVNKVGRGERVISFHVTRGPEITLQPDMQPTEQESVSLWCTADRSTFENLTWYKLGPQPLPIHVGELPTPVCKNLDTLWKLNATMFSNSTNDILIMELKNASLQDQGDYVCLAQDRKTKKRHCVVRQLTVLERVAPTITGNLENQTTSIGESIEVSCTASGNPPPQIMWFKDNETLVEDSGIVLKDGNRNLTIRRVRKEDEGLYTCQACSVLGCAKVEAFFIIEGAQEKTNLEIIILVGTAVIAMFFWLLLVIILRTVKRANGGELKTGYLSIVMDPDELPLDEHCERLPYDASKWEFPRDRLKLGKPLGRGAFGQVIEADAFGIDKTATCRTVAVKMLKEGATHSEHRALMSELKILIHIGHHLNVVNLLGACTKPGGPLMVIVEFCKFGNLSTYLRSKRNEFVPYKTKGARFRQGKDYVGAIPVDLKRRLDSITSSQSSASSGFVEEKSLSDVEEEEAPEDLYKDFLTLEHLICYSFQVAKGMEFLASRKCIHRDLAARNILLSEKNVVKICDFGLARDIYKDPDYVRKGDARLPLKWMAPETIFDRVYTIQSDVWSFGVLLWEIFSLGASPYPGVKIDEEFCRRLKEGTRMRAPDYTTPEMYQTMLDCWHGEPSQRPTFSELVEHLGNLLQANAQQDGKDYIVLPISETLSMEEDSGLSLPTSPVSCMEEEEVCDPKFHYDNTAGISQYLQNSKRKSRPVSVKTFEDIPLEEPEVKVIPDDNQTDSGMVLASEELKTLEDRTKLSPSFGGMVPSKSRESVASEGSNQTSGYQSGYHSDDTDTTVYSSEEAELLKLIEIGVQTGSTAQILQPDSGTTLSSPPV
The experiment in a line: Inhibitory activity against KDR (VEGF-R2), in vitro data of Examples 170 and 207. As to conditions: 10 μM; Examples 1 to 169; read-out: KDR inhibition at 10 μM. Here is the method: (Controls comprise medium without test compounds). After two hours of incubation at 37° C., recombinant VEGF is added; the final VEGF concentration is 20 ng/ml. After a further five minutes incubation at 37° C., the cells are washed twice with ice-cold PBS (phosphate-buffered saline) and immediately lysed in 100 μl lysis buffer per well. The lysates are then centrifuged to remove the cell nuclei, and the protein concentrations of the supernatants are determined using a commercial protein assay (BIORAD). The lysates can then either be immediately used or, if necessary, stored at −20° C. […] The plates are then washed and the remaining free protein-binding sites are saturated with 3% TopBlock® (Juro, Cat. # TB232010) in phosphate buffered saline with Tween 20® (polyoxyethylen(20)sorbitane monolaurate, ICI/Uniquema) (PBST). The cell lysates (20 μg protein per well) are then incubated in these plates overnight at 4° C. together with an antiphosphotyrosine antibody coupled with alkaline phosphatase (PY20:AP from Zymed). […] The luminescence is measured in a Packard Top Count Microplate Scintillation Counter.

T2 sequence (Q02763 773-1124): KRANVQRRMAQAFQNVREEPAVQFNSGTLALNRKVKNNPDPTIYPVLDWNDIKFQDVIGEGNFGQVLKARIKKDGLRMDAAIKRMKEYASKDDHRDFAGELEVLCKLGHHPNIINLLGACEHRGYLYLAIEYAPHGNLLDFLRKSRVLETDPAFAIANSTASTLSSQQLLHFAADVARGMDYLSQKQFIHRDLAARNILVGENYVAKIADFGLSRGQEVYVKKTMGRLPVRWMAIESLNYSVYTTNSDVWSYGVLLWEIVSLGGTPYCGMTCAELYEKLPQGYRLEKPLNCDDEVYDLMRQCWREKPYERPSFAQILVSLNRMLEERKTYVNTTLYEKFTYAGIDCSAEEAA
T1 sequence (P22607 411-806 K650E): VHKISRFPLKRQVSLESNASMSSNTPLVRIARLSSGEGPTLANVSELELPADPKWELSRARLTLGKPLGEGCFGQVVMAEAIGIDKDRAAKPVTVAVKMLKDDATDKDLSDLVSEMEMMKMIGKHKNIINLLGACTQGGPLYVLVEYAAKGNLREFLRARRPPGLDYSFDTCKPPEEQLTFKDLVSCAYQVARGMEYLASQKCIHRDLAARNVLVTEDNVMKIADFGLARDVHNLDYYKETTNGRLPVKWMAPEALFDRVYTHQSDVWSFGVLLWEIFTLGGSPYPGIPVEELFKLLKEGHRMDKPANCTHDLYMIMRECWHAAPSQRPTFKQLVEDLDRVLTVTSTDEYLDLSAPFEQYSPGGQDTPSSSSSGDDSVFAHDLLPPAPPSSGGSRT

As usually defined, the inhibition is the percentage by which the read-out fell short of the control. Consider `COc1ccc(C)c(NC(=O)Nc2cc(Nc3cccc(N4CCN(C)CC4)c3)ncn2)c1` [Example 27, 1-(5-Methoxy-2-methyl-phenyl)-3-{6-[3-(4-methyl-piperazin-1-yl)-phenyl-amino]-pyrimidin-4-yl}-urea], for which the figures for the inhibition at 10 µM at FGFR3 (K650E), at Tek and at KDR were 27 to 100%, 12 to 100% and 67 to 100%, respectively.
In the same order, the values of `COc1ccc(Cl)c(NC(=O)Nc2cc(Nc3cccc(N4CCN(C)CC4)c3)ncn2)c1` [Example 29, 1-(2-Chloro-5-methoxy-phenyl)-3-{6-[3-(4-methyl-piperazin-1-yl)-phenyl-amino]-pyrimidin-4-yl}-urea] are 27 to 100%, 12 to 100% and 67 to 100%.
The like results for `COc1ccc(NC(=O)Nc2cc(Nc3ccc(N4CCN(C)CC4)cc3)ncn2)cc1OC` [Example 30, 1-(3,4-Dimethoxy-phenyl)-3-{6-[4-(4-methyl-piperazin-1-yl)-phenyl-amino]-pyrimidin-4-yl}-urea] were, in that order, 27 to 100%, 12 to 100% and 67 to 100%.
On to `COc1ccc(NC(=O)Nc2cc(Nc3cccc(N4CCN(C)CC4)c3)ncn2)cc1OC` [Example 31, 1-(3,4-Dimethoxy-Phenyl)-3-{6-[3-(4-methyl-piperazin-1-yl)-phenyl-amino]-pyrimidin-4-yl}-urea], for which the inhibition at 10 µM lay in the range of 27 to 100% on FGFR3 (K650E), 12 to 100% at Tek and 67 to 100% at KDR.
As to `COc1cc(NC(=O)Nc2cc(Nc3ccc(N4CCN(C)CC4)cc3)ncn2)ccc1F` [Example 32, 1-(4-Fluoro-3-methoxy-phenyl)-3-{6-[4-(4-methyl-piperazin-1-yl)-phenyl-amino]-pyrimidin-4-yl}-urea], the inhibition at 10 µM is 27 to 100% at FGFR3 (K650E), 12 to 100% on Tek and 67 to 100% on KDR.
In the same order, the values of `COc1cc(NC(=O)Nc2cc(Nc3cccc(N4CCN(C)CC4)c3)ncn2)ccc1F` [Example 33, 1-(4-Fluoro-3-methoxy-phenyl)-3-{6-[3-(4-methyl-piperazin-1-yl)-phenyl-amino]-pyrimidin-4-yl}-urea] are 27 to 100%, 12 to 100% and 67 to 100%.
On to `COc1cc(C)c(NC(=O)Nc2cc(Nc3ccc(N4CCN(C)CC4)cc3)ncn2)cc1OC` [Example 34, 1-(4,5-Dimethoxy-2-methyl-phenyl)-3-{6-[4-(4-methyl-piperazin-1-yl)-phenyl-amino]-pyrimidin-4-yl}-urea], for which the inhibition at 10 µM was 27 to 100% on FGFR3 (K650E), 12 to 100% on Tek and 67 to 100% on KDR.
Take `COc1cc(C)c(NC(=O)Nc2cc(Nc3cccc(N4CCN(C)CC4)c3)ncn2)cc1OC` [Example 35]: the inhibition at 10 µM is 27 to 100% at FGFR3 (K650E), 12 to 100% on Tek and 67 to 100% on KDR.
In the same order, the values of `COc1ccc(Cl)c(NC(=O)Nc2cc(Nc3cccc(OCCN4CCOCC4)c3)ncn2)c1Cl` [Example 37, 1-(2,6-Dichloro-3-methoxy-phenyl)-3-{6-[3-(2-morpholin-4-yl-ethoxy)-phenylamino]-pyrimidin-4-yl}-urea] are 27 to 100%, 12 to 100% and 67 to 100%.
Consider `CNc1cc(NC(=O)Nc2cc(OC)cc(OC)c2Cl)ncn1` [Example 38, 1-(2-Chloro-3,5-dimethoxy-phenyl)-3-(6-methylamino-pyrimidin-4-yl)-urea], for which the results for the inhibition at 10 µM on FGFR3 (K650E), at Tek and on KDR were 27 to 100%, 12 to 100% and 67 to 100%, respectively.
In the same order, the values of `COc1cc(NC(=O)Nc2cc(Nc3ccccc3)ncn2)c(Cl)c(OC)c1` [Example 39, 1-(2-Chloro-3,5-dimethoxy-phenyl)-3-(6-phenylamino-pyrimidin-4-yl)-urea] are 27 to 100%, 12 to 100% and 67 to 100%.
For the compound `COc1cc(NC(=O)Nc2cc(Nc3cccc(N4CCN(C)CC4)c3)ncn2)c(Cl)c(OC)c1` [Example 41], the inhibition at 10 µM on FGFR3 (K650E) was 27 to 100%; at Tek, 12 to 100%; at KDR, 67 to 100%.
With `CCN(CC)CCOc1ccc(Nc2cc(NC(=O)Nc3cc(OC)cc(OC)c3Cl)ncn2)cc1` [Example 42, 1-(2-Chloro-3,5-dimethoxy-phenyl)-3-{6-[4-(2-diethylamino-ethoxy)-phenylamino]-pyrimidin-4-yl}-urea], the inhibition at 10 µM on FGFR3 (K650E) lay within 27 to 100%; at Tek, 12 to 100%; at KDR it was 67 to 100%.
`COc1cc(NC(=O)Nc2cc(Nc3cccc(OCCN(C)C)c3)ncn2)c(Cl)c(OC)c1` [Example 43, 1-(2-Chloro-3,5-dimethoxy-phenyl)-3-{6-[3-(2-dimethylamino-ethoxy)-phenylamino]-pyrimidin-4-yl}-urea]: the inhibition at 10 µM on FGFR3 (K650E) lay in the range of 27 to 100%; at Tek it was 12 to 100%; on KDR, 67 to 100%.
The like results for `COc1cc(NC(=O)Nc2cc(Nc3ccc(OCCN4CCOCC4)cc3)ncn2)c(Cl)c(OC)c1` [Example 44, 1-(2-Chloro-3,5-dimethoxy-phenyl)-3-{6-[4-(2-morpholin-4-yl-ethoxy)-phenylamino]-pyrimidin-4-yl}-urea] were, in that order, 27 to 100%, 12 to 100% and 67 to 100%.
The like results for `COc1cc(NC(=O)Nc2cc(Nc3cccc(OCCN4CCOCC4)c3)ncn2)c(Cl)c(OC)c1` [Example 45, 1-(2-Chloro-3,5-dimethoxy-phenyl)-3-{6-[3-(2-morpholin-4-yl-ethoxy)-phenylamino]-pyrimidin-4-yl}-urea] were, in that order, 27 to 100%, 12 to 100% and 67 to 100%.
